From publication PMC11232401, “Characterization of antimalarial activity of artemisinin-based hybrid drugs” (Antimicrobial Agents and Chemotherapy, 2024)
Read-outs that look alike come from different tables or passages of the source.

Experiments:
[1] = test system: F32-TEM (ART-sensitive) strain of P. falciparum; assay: Standard chemosensitivity assay (SYBR Green I, 48 h); format: cell-based; conditions: Plasmodium falciparum, F32, 48 h, read-out: IC50 (nM, mean ± SD) for P. falciparum (48 h), F32-TEM (ART-sensitive)
Procedure: (§1) Compounds were dissolved in DMSO and diluted in RPMI-1640 medium into five different concentrations (0.1–1000 nM). Each well of 96-well plates was filled with 100 µL drug at each concentration and 100 µL synchronized ring-stages of the ART-resistant strain F32-ART or its ART-susceptible twin strain F32-TEM at final parasitemia of 1% and 2% hematocrit. Plates were incubated for 48 h at 37°C and 5% CO2. The drugs were washed out in 1× phosphate-buffered saline (PBS) (Sigma-Aldrich), the plates were frozen and thawed, and then, the lysed parasites were transferred to black 96-well plates. SYBR Green I (Fisher Scientific, Illkirch, France) at a 2× concentration in a lysis buffer (20 mM TRIS base, pH 7.5, 20 mM EDTA, 0.008% wt/vol saponin, 0.08% wt/vol Triton X-100) was then added and the plates were incubated for 1 h at room temperature in the dark. Fluorescence was measured at 485 nm excitation and 528 nm emission in a VICTOR Nivo plate reader (Perkin Elmer, Waltham, USA) and the IC50s values were then calculated using Prism 7 (GraphPad, San Diego, USA).
(§2) ^[a] Parasites were exposed for 48 h of incubation in the presence of drugs, then parasite viability was determined using SYBR Green I. Mean of two independent experiments. DHA = dihydroartemisinin; SD = standard deviation.

[2] = test system: F32-ART (ART-resistant) strain of P. falciparum; assay: as above; format: cell-based; conditions: Plasmodium falciparum, F32, 48 h
Procedure: as §1, §2

[3] = test system: 3D7 strain of P. falciparum; assay: Host cell-mediated drug degradation: antiplasmodial activity of uRBC supernatants; format: cell-based, Plasmodium falciparum; conditions: for IC50: Plasmodium falciparum, 3D7, 0.16 h, 500 nM drug, 3D7, SYBR Green I, median ± SEM (AQ mean, 95% CI), read-out: IC50 of supernatants harvested at 0.16 h; for Fold changes (24 h/0.16 h): 3D7, ratio of IC50 at 24 h to IC50 at 0.16 h
Procedure: Each well of 96-well plates was filled with 125 µL drug (1000 nM) and 125 µL uninfected red blood cells (uRBC), which were mixed to obtain a final drug concentration of 500 nM and 2.5% or 1.0% hematocrit. The plates were incubated at 37°C in the standard gas mixture. After each time point (10 min, 6 h, and 24 h), supernatants were carefully harvested and stored at −80°C until use. […] Next, supernatants were diluted in a complete medium in six different dilutions and were aliquoted in new plates. The antimalarial activity of these supernatants and freshly dissolved drugs was determined in an asynchronous parasite culture of P. falciparum (3D7, D10, and W2 strains) for 72 h using the same method described above, and parasite viability was assessed by the pLDH ([38]) and SYBR Green I ([41]) methods. Only the experiments where the IC50 values of the supernatants harvested at 10 min were the same as those of the respective fresh drugs were considered for determining equivalent drug concentration. […] Decay in drug concentration was estimated by using the normalized slope values calculated from linear regression fits using the slope values of a standard curve as reference. Three independent experiments were performed using two replicates.
Figure S5: Data associated to Figure 3 in the main text of the manuscript. Panel A: Representative response-concentration curves of the antiplasmodial activity of supernatant-derived uRBC (2.5% hematocrit) harvested at indicated times (0.16, 6, and 24 h). Drug activity on parasite viability was determined 72 h after parasite incubation (3D7 strain, asynchronous). Values were subtracted from control (without treatment), transformed, and normalized to calculate nonlinear fit. Parasite viability was determined by SYBR Green I. Values are mean and error bars are the standard deviation of a single experiment, each concentration in duplicate. […] Footnotes: ^[a] Parasite viability was determined by SYBR Green I. ^[b^] Parasite viability was determined by pLDH readout. Values are median ± SEM of three independent experiments, each concentration in duplicate. ^[c^] […] These values are expressed as mean and 95% confidence interval (CI) of one experiment, each concentration in duplicate. […] Unpaired two-tailed t-test at 95% CI: *p <0.05; **p <0.01.

[4] = test system: quiescent ART-resistant parasites (F32-ART); assay: Quiescent-stage survival assay (QSA); format: cell-based, Plasmodium falciparum; conditions: for Recrudescence time in days (median; range), Quiescent parasites (QSA) DHA / DHA + drug: then DHA plus 700 nM drug 48 h (condition B); for delay of recrudescence in the QSA versus DHA alone: threshold of activity 6 days
Procedure: The QSA was performed as previously described to determine the drug activity on quiescent ART-resistant parasites ([11]). F32-ART culture parasites were synchronized at the ring stage and adjusted to 3% parasitemia and 2% hematocrit. […] At the end of treatment, parasites from each of the three conditions were washed with RPMI-1640 medium and replaced in new wells in a drug-free culture medium with 10% human serum. Parasitemia was determined daily by thin blood smears until the cultures reached their initial parasitemia (3%), which was defined as the recrudescence day ([11]). The recrudescence capacity of parasites exposed in conditions A and B was compared to determine whether the drug was active on quiescent parasites. Condition C was designed to check that the concentration at which the drug was tested acted on proliferating parasites. If no parasite recrudescence was observed, the experiment was stopped.

[5] = read-out: IC50 (nM, mean ± SD) for P. falciparum (48 h), F32-ART (ART-resistant)

Row | SMILES | IC50 [1] [nM] | IC50 [2, 5] [nM] | IC50 ([2]; read-out: IC50 in the standard chemosensitivity assay) [nM] | IC50 ([3]; uRBC 1.0% hematocrit) [nM] | IC50 ([3]; uRBC 2.5% hematocrit) [nM] | loss in supernatant activity, supernatant harvested at 6 h ([3]; high hematocrit (2.5%)) | loss in antiplasmodial activity of supernatants harvested at 6 h ([3]; low hematocrit (1%)) [fold] | Recrudescence time in days (median; range), Quiescent parasites (QSA) DHA / DHA ([4]; 700 nM DHA 6 h, then DHA alone 48 h (condition A)) | Fold changes (24 h/0.16 h) ([3]; uRBC 1.0% hematocrit) | Fold changes (24 h/0.16 h) ([3]; uRBC 2.5% hematocrit) | Fold changes (24 h/0.16 h) ([3]; uRBC 2.5% hematocrit, listed as LH70 (1)) | Recrudescence time in days (median; range), Quiescent parasites (QSA) DHA / DHA + drug ([4]; 700 nM DHA 6 h) | delay of recrudescence in the QSA versus DHA alone [4] [days] | Fold changes (24 h/0.16 h) ([3]; uRBC 2.5% hematocrit, listed as 163A (2))
1 | C[C@H]1[C@@H](O)O[C@@H]2O[C@@]3(C)CC[C@H]4[C@H](C)CC[C@@H]1[C@@]24OO3 [DHA, dihydroartemisinin, reference compound] | 2 ± 0.2 | 0.8 ± 0.8 | < 5 | 4.5 ± 1.1 | 6.7 ± 2.5 | fourfold | 2 | 8.5 (8–9) days |  |  |  |  |  | 
2 | COCCOCCOCCOCCn1c(-c2ccc(-n3cc(-c4ccc(OC5OC6OC7(C)CCC8C(C)CCC(C5C)C68OO7)cc4)nn3)cc2)nc2ccccc21 (stereo not shown) [Hybrid 1] | 2.6 ± 0.6 | 4.2 ± 1.3 |  |  | 1.3 ± 0.44 |  |  |  | 1.0 ± 0.23 | 3 | 3.6 ± 0.8 | 11.5 (11–12) days | 0.5 | 
3 | CC1CCC2C(C)C(OC(=O)CCC(=O)OCCNc3ccnc4cc(Cl)ccc34)OC3OC4(C)CCC1C32OO4 (stereo not shown) [Hybrid 2] | 4.8 ± 1.2 | 4.5 ± 2.5 |  | 3.4 ± 0.33 | 2.8 ± 0.51 |  |  |  | 1.1 ± 0.31 | 10 |  | 9 (8–10) days | 3 | 10.7 ± 4.1
